# Patent publication US20100184683A1, “ANTIBACTERIAL AND ANTIFUNGAL PEPTIDES” (C3 JIAN, INC., priority 2009, published 2010)
# Peptide text beside a SMILES is read from it.
# Test system: B. subtilis
# Experiment: not given
# Assay type: cell-based, Bacillus subtilis
# Settings: not given
# Procedure: (§1) In certain embodiments the MIC assays are performed as described herein in the Examples. For each organism, the media and growth conditions utilized is detailed in Table 8.
# (§2) In certain embodiments the MIC assays are performed as follows: For each organism, the media and growth conditions utilized is detailed in Table 8.
row,Compound,MIC
1,CC[C@H](C)[C@H](NC(=O)CN)C(=O)N[C@H](C(=O)N[C@@H](CC(C)C)C(=O)N[C@H](C(=O)NCC(=O)N[C@@H](CC(C)C)C(=O)N[C@@H](CCCCN)C(=O)N[C@@H](CC(C)C)C(=O)N[C@H](C(=O)N1CCC[C@H]1C(=O)N[C@@H](CC(C)C)C(=O)N[C@@H](CC(C)C)C(=O)N[C@@H](C)C(=O)N[C@@H](CC(N)=O)C(=O)N[C@H](C(=O)N[C@@H](CC(C)C)C(=O)N[C@@H](CCCNC(=N)N)C(=O)O)C(C)C)[C@@H](C)CC)[C@@H](C)CC)C(C)C [PF-322] (H-GIVLIGLKLIPLLANVLR-OH; N-terminus and C-terminus assumed),50 µM
2,CC[C@H](C)[C@H](NC(=O)[C@H](Cc1ccccc1)NC(=O)[C@@H](NC(=O)[C@H](Cc1ccccc1)NC(=O)[C@H](CC(C)C)NC(=O)[C@H](CC(=O)O)NC(=O)[C@@H](NC(=O)[C@H](CS)NC(=O)[C@@H](NC(=O)[C@H](CCCNC(=N)N)NC(=O)[C@H](CC(C)C)NC(=O)[C@@H](NC(=O)[C@@H](N)CC(C)C)C(C)C)[C@@H](C)CC)[C@@H](C)O)[C@@H](C)O)C(=O)N[C@@H](CCCCN)C(=O)N[C@@H](Cc1c[nH]c2ccccc12)C(=O)N[C@H](C(=O)N[C@H](C(=O)N[C@@H](CCCCN)C(=O)N[C@@H](CCC(N)=O)C(=O)N[C@@H](CCCNC(=N)N)C(=O)N[C@@H](CCCCN)C(=O)N[C@@H](CO)C(=O)O)[C@@H](C)CC)[C@@H](C)O [PF-497] (H-LVLRICTDLFTFIKWTIKQRKS-OH; N-terminus and C-terminus assumed),50 µM
3,CC[C@H](C)[C@H](NC(=O)[C@H](CCCNC(=N)N)NC(=O)[C@H](CCCCN)NC(=O)[C@H](CCCCN)NC(=O)[C@H](CCSC)NC(=O)[C@H](CO)NC(=O)[C@H](CC(C)C)NC(=O)[C@H](CC(C)C)NC(=O)[C@H](CCCCN)NC(=O)[C@H](CCCNC(=N)N)NC(=O)[C@@H](NC(=O)[C@@H](NC(=O)[C@@H](NC(=O)[C@H](CC(C)C)NC(=O)[C@@H](NC(=O)[C@H](Cc1ccc(O)cc1)NC(=O)[C@H](CC(C)C)NC(=O)[C@H](Cc1ccccc1)NC(=O)[C@H](CO)NC(=O)[C@H](Cc1ccc(O)cc1)NC(=O)[C@@H](N)C(C)C)C(C)C)C(C)C)[C@@H](C)CC)C(C)C)C(=O)N[C@@H](CCC(=O)O)C(=O)N[C@@H](CCCNC(=N)N)C(=O)N[C@@H](CC(C)C)C(=O)O [PF-499] (H-VYSFLYVLVIVRKLLSMKKRIERL-OH; N-terminus and C-terminus assumed),50 µM

# Test system: S. pneumoniae
# Experiment: not given
# Assay type: cell-based, Streptococcus pneumoniae
# Settings: not given
# Procedure: as §1, §2
row,Compound,MIC
1,CC[C@H](C)[C@H](NC(=O)[C@@H](NC(=O)[C@@H](NC(=O)[C@@H]1CCCN1C(=O)[C@@H](NC(=O)[C@H](CCC(=O)O)NC(=O)[C@H](CC(=O)O)NC(=O)[C@H](CC(=O)O)NC(=O)[C@H](CC(=O)O)NC(=O)[C@H](CCC(N)=O)NC(=O)[C@H](Cc1ccccc1)NC(=O)[C@H](CC(=O)O)NC(=O)[C@H](CCC(=O)O)NC(=O)[C@@H](NC(=O)[C@H](CCC(=O)O)NC(=O)[C@H](CCC(=O)O)NC(=O)CNC(=O)[C@@H](NC(=O)[C@H](Cc1ccccc1)NC(=O)[C@@H]1CCCN1C(=O)[C@H](CCCCN)NC(=O)[C@H](CCC(N)=O)NC(=O)[C@@H](N)Cc1ccccc1)[C@@H](C)O)C(C)C)[C@@H](C)CC)[C@@H](C)O)[C@@H](C)CC)C(=O)O [PF-437] (H-FQKPFTGEEVEDFQDDDEIPTII-OH; N-terminus and C-terminus assumed),50 µM
2,CC(C)C[C@H](NC(=O)[C@H](CCCCN)NC(=O)CNC(=O)[C@@H](N)CS)C(=O)N[C@@H](CC(C)C)C(=O)N[C@@H](CCC(=O)O)C(=O)N[C@@H](CCC(N)=O)C(=O)N[C@@H](CCCCN)C(=O)N[C@@H](CC(N)=O)C(=O)N[C@@H](Cc1ccccc1)C(=O)N[C@@H](Cc1ccccc1)C(=O)N[C@@H](CC(C)C)C(=O)N[C@@H](CCCCN)C(=O)N[C@H](C(=O)N[C@@H](CCCNC(=N)N)C(=O)O)[C@@H](C)O [PF-521] (H-CGKLLEQKNFFLKTR-OH; N-terminus and C-terminus assumed),50 µM
3,CC(C)C[C@H](NC(=O)[C@H](CC(C)C)NC(=O)[C@H](Cc1c[nH]cn1)NC(=O)[C@H](CC(N)=O)NC(=O)[C@H](CCCCN)NC(=O)[C@H](CC(C)C)NC(=O)[C@H](CO)NC(=O)[C@H](CCCNC(=N)N)NC(=O)[C@H](CO)NC(=O)[C@H](C)NC(=O)[C@H](CCC(N)=O)NC(=O)[C@H](CCCCN)NC(=O)[C@H](CO)NC(=O)[C@H](C)NC(=O)[C@H](CCC(N)=O)NC(=O)[C@H](CCCCN)NC(=O)[C@H](CO)NC(=O)[C@H](C)NC(=O)[C@H](CCC(N)=O)NC(=O)[C@H](CCCCN)NC(=O)[C@H](CO)NC(=O)[C@H](C)NC(=O)[C@H](CCC(N)=O)NC(=O)[C@H](CCCCN)NC(=O)[C@H](CO)NC(=O)[C@H](C)NC(=O)[C@H](CCC(N)=O)NC(=O)[C@H](CCCCN)NC(=O)[C@H](CO)NC(=O)[C@H](C)N)C(=O)O [PF-523] (H-ASKQASKQASKQASKQASKQASRSLKNHLL-OH; N-terminus and C-terminus assumed),50 µM
4,CC[C@H](C)[C@H](NC(=O)[C@H](CCCNC(=N)N)NC(=O)[C@H](CO)NC(=O)[C@H](CC(C)C)NC(=O)[C@H](C)NC(=O)[C@H](C)NC(=O)[C@H](CC(C)C)NC(=O)[C@@H](NC(=O)[C@@H]1CCCN1C(=O)[C@H](CCCCN)NC(=O)[C@H](Cc1c[nH]cn1)NC(=O)[C@H](Cc1ccc(O)cc1)NC(=O)[C@H](CS)NC(=O)[C@@H](NC(=O)[C@H](CCCNC(=N)N)NC(=O)[C@@H]1CCCN1C(=O)[C@H](C)NC(=O)[C@H](CC(=O)O)NC(=O)[C@@H]1CCCN1)[C@@H](C)O)[C@@H](C)CC)C(=O)N[C@H](C(=O)N[C@H](C(=O)N[C@H](C(=O)N[C@@H](CC(=O)O)C(=O)N[C@@H](CCCNC(=N)N)C(=O)O)[C@@H](C)O)C(C)C)C(C)C [PF-524] (H-PDAPRTCYHKPILAALSRIVVTDR-OH; N-terminus and C-terminus assumed),50 µM

# Same assay, conditions: S. pneumoniae; TSB supplemented with 5% yeast extract, 37° C., 10% CO2; inoculum 10^6 CFU/ml; 18-24 h or 48 h
row,Compound,MIC
1,CC[C@H](C)[C@H](NC(=O)[C@H](CC(C)C)NC(=O)[C@@H]1CCCN1C(=O)[C@@H]1CCCN1C(=O)[C@H](CCCCN)NC(=O)[C@@H](NC(=O)[C@H](Cc1ccc(O)cc1)NC(=O)[C@H](CC(C)C)NC(=O)[C@H](CO)NC(=O)[C@H](CCC(N)=O)NC(=O)[C@H](CCSC)NC(=O)[C@@H](N)C(C)C)C(C)C)C(=O)N[C@@H](CC(C)C)C(=O)N[C@H](C(=O)N[C@H](C(=O)N[C@@H](CCCCN)C(=O)N[C@@H](CC(C)C)C(=O)N[C@@H](C)C(=O)N[C@@H](CCC(N)=O)C(=O)N[C@@H](CCC(N)=O)C(=O)N[C@@H](CC(N)=O)C(=O)O)[C@@H](C)O)C(C)C [PF-511] (H-VMQSLYVKPPLILVTKLAQQN-OH; N-terminus and C-terminus assumed),50 µM
2,CC[C@H](C)[C@H](NC(=O)[C@H](CCC(=O)O)NC(=O)[C@@H]1CCCN1C(=O)[C@H](CCSC)NC(=O)[C@H](Cc1ccccc1)NC(=O)[C@@H](N)CO)C(=O)N[C@@H](CCC(N)=O)C(=O)N[C@@H](CCCCN)C(=O)N[C@@H](CC(N)=O)C(=O)N[C@H](C(=O)N[C@H](C(=O)N1CCC[C@H]1C(=O)N[C@H](C(=O)N[C@@H](CCC(N)=O)C(=O)N[C@@H](CCSC)C(=O)N[C@@H](CCCCN)C(=O)O)[C@@H](C)O)[C@@H](C)CC)[C@@H](C)O [PF-512] (H-SFMPEIQKNTIPTQMK-OH; N-terminus and C-terminus assumed),50 µM
3,LGLTAGVAYAAQPTNQPTNQPTNQPTNQPTNQPTNQPRW [PF-520],50 µM

# Test system: Candida albicans
# Experiment: Binding of targeting peptides to Candida albicans
# Settings: tested at 3.13, 6.25, 12.5 and 25.0 μM in 1× PBS or HEPES/NaCl/MgCl2/0.1% CTAB
# Procedure: The peptides in Table 6 were tested for binding efficiency at 3.13, 6.25, 12.5 and 25.0 μM concentrations in 1× phosphate-buffered saline or 20 mM HEPES (4-(2-hydroxyethyl)-1-piperazineethanesulfonic acid), 150 mM sodium chloride, 1 mM magnesium chloride and 0.1% CTAB.
row,Compound,Target(s): form of Candida albicans bound
1,AIEGVIKKGACFKLLRHEMF [PF-167],yeast cells
2,DLRKAK (VVRRFQGM; Antimicrobial peptide and/or targeting peptide) [PF-024],hyphae
3,EILNNNQVIKELTMKYKTQFESNLGGWTARARR [PF-580],hyphae
4,EVYSSPTNNVAITVQNN [PF-178],hyphae
5,GGTKEIVYQRG [1T-68],yeast cells
6,GVGIGFIMMGVVGYAVKLVHIPIRYLIV [PF-770],hyphae
7,HARAAVGVAELPRGAAVEVELIAAVRP [1T-65],hyphae
8,HSSHL (HARAAVGVAELPRGAAVEVELIAAVRP; Antimicrobial peptide and/or targeting peptide) [PF-060],hyphae
9,KLRSASKKSLQEKSCGIMPEKPAG [PF-206],hyphae
10,LVRLA (NILFGIIGFVVAMTAAVIVTAISIAK; Antimicrobial peptide and/or targeting peptide) [PF-636],hyphae
11,MIHLTKQNTMEALHFIKQFYDMFFILNFNV [PF-040],hyphae
12,MPKARPVNHNKKKSKITIKSNFTLFYMFNP [PF-634],hyphae
13,NILFGIIGFVVAMTAAVIVTAISIAK [PF-543],hyphae
14,NRQAQGERAHGEQQG [1T-70],yeast cells
15,RFFNFEIKKSTKVDYVFAHVDLSDV [PF-051],hyphae
16,RLARGRPTNLCGRRG [PF-170],yeast cells
17,RLTSNQFLTRITPFVFAQH [PF-176],yeast cells
18,SKFELVNYASGCSCGADCKCASETECKCASKK [PF-761],hyphae
19,VVRRFQGM [PF-141],hyphae
20,VYRHLRFIDGKLVEIRLERK [1T-36],hyphae
